Results reported in the CheMixHub viscosity set.
± gives the uncertainty stated by the source.

Experiment: xn = mol fraction of the nth substance listed

CCN(CC)CC + CCc1ccccc1
303.15 K, 101 kPa
Details | viscosity [mPa·s]
x1 = 0.01075 | 0.5914 ± 0.0052
x1 = 0.02054 | 0.5873 ± 0.0052
x1 = 0.03021 | 0.5822 ± 0.0051
x1 = 0.04405 | 0.5755 ± 0.0051
x1 = 0.05034 | 0.5715 ± 0.005
x1 = 0.06324 | 0.5666 ± 0.0051
x1 = 0.07098 | 0.5623 ± 0.005
x1 = 0.0794 | 0.5569 ± 0.005
x1 = 0.09408 | 0.5505 ± 0.0048
x1 = 0.1003 | 0.5476 ± 0.0048

CCN(CC)CC + O
293.15 K, 100 kPa
Details | viscosity [mPa·s]
x1 = 0.0049 | 1.176 ± 0.0092
x1 = 0.0095 | 1.323 ± 0.01
x1 = 0.015 | 1.554 ± 0.012
x2 = 0.1006 | 0.4211 ± 0.0044
x2 = 0.204 | 0.5113 ± 0.005
x2 = 0.2996 | 0.6374 ± 0.0059
x2 = 0.4007 | 0.8296 ± 0.0074
x2 = 0.4997 | 1.135 ± 0.0096
x2 = 0.5997 | 1.614 ± 0.013
x2 = 0.7028 | 2.385 ± 0.022
x2 = 0.98 | 1.722 ± 0.013

ClC(Cl)(Cl)Cl + CCCC(=O)OCC
101.33 kPa
Details | viscosity [mPa·s]
303.15 K, x1 = 0.061 | 0.606 ± 0.005
303.15 K, x1 = 0.1443 | 0.621 ± 0.005
303.15 K, x1 = 0.2812 | 0.648 ± 0.005
303.15 K, x1 = 0.3929 | 0.672 ± 0.006
303.15 K, x1 = 0.5226 | 0.699 ± 0.006
303.15 K, x1 = 0.5625 | 0.708 ± 0.006
303.15 K, x1 = 0.6324 | 0.726 ± 0.006
303.15 K, x1 = 0.7331 | 0.748 ± 0.006
303.15 K, x1 = 0.8278 | 0.778 ± 0.006
303.15 K, x1 = 0.8866 | 0.798 ± 0.006
303.15 K, x1 = 0.9455 | 0.819 ± 0.007
313.15 K, x1 = 0.2056 | 0.586 ± 0.005
313.15 K, x1 = 0.4083 | 0.615 ± 0.005
313.15 K, x1 = 0.5058 | 0.631 ± 0.005
313.15 K, x1 = 0.6059 | 0.647 ± 0.005
313.15 K, x1 = 0.799 | 0.69 ± 0.006

CCN(CC)CC + C1CCCCC1
303.15 K, 101 kPa
Details | viscosity [mPa·s]
x1 = 0.01021 | 0.8057 ± 0.0088
x1 = 0.01915 | 0.7913 ± 0.0089
x1 = 0.0299 | 0.7725 ± 0.0083
x1 = 0.04221 | 0.7556 ± 0.0079
x1 = 0.04976 | 0.7402 ± 0.0078
x1 = 0.0618 | 0.7264 ± 0.0071
x1 = 0.07115 | 0.7134 ± 0.0074
x1 = 0.07987 | 0.7009 ± 0.0072
x1 = 0.08947 | 0.6879 ± 0.0067
x1 = 0.09947 | 0.6772 ± 0.0063

CCN(CC)CC + ClC(Cl)Cl
298.15 K, 101 kPa
Details | viscosity [mPa·s]
x2 = 0.0983 | 0.389 ± 0.008
x2 = 0.1979 | 0.442 ± 0.008
x2 = 0.2978 | 0.503 ± 0.008
x2 = 0.3989 | 0.567 ± 0.009
x2 = 0.4988 | 0.618 ± 0.009
x2 = 0.5829 | 0.64 ± 0.01
x2 = 0.6859 | 0.631 ± 0.01
x2 = 0.8008 | 0.604 ± 0.009
x2 = 0.901 | 0.574 ± 0.009

ClC(Cl)(Cl)Cl + CCCCOCCO
298.15 K, 101.3 kPa
Details | viscosity [mPa·s]
x2 = 0.0054 | 0.913 ± 0.011
x2 = 0.0106 | 0.919 ± 0.011
x2 = 0.0262 | 0.918 ± 0.011
x2 = 0.0778 | 0.968 ± 0.012
x2 = 0.1296 | 1.035 ± 0.013
x2 = 0.1914 | 1.125 ± 0.014
x2 = 0.2889 | 1.283 ± 0.015
x2 = 0.3826 | 1.47 ± 0.017
x2 = 0.4809 | 1.687 ± 0.02
x2 = 0.5388 | 1.81 ± 0.021
x2 = 0.5933 | 1.935 ± 0.022
x2 = 0.6963 | 2.162 ± 0.025
x2 = 0.7923 | 2.385 ± 0.027
x2 = 0.8841 | 2.589 ± 0.029
x2 = 0.9631 | 2.759 ± 0.031

CCN(CC)CC + CCCCN
viscosity [mPa·s], 101.33 kPa
Details | x1 = 0.1038 | x1 = 0.2009 | x1 = 0.4065 | x1 = 0.5021 | x1 = 0.5996 | x1 = 0.801 | x1 = 0.8898
303.15 K | 0.4186 ± 0.0053 | 0.4019 ± 0.0052 | 0.3761 ± 0.0051 | 0.3681 ± 0.0051 | 0.3611 ± 0.005 | 0.357 ± 0.005 | 0.3569 ± 0.005
313.15 K | 0.3692 ± 0.0051 | 0.3555 ± 0.005 | 0.3345 ± 0.0049 | 0.329 ± 0.0049 | 0.3244 ± 0.0049 | 0.3216 ± 0.0049 | 0.3228 ± 0.0049

ClC(Cl)(Cl)Cl + C=C(C)C(=O)OC
303.15 K, 101 kPa
Details | viscosity [mPa·s]
x2 = 0.0997 | 0.7954 ± 0.0073
x2 = 0.1978 | 0.753 ± 0.0071
x2 = 0.4056 | 0.6767 ± 0.0066
x2 = 0.5067 | 0.641 ± 0.0064
x2 = 0.5941 | 0.6167 ± 0.0063
x2 = 0.7976 | 0.5599 ± 0.006
x2 = 0.8944 | 0.536 ± 0.0059

ClC(Cl)(Cl)Cl + Cc1ccc(C)cc1
298.15 K, 101 kPa
Details | viscosity [mPa·s]
x2 = 0.1 | 0.87 ± 0.011
x2 = 0.2 | 0.8339 ± 0.01
x2 = 0.3 | 0.7997 ± 0.01
x2 = 0.4 | 0.7675 ± 0.0097
x2 = 0.5 | 0.7372 ± 0.0093
x2 = 0.6 | 0.7087 ± 0.009
x2 = 0.7 | 0.6816 ± 0.0086
x2 = 0.8 | 0.6556 ± 0.0083
x2 = 0.9 | 0.6301 ± 0.008
